Values of other authors in US20260283943A1, “STARCHLESS MOLDING PROCESS FOR ORAL PRODUCTS” (NICOVENTURES TRADING LIMITED, priority 2023, published 2026).

Legend:
[1] = isolated substance

## C=C(C)[C@@H]1CCC(C)=C[C@H]1c1c(O)cc(CCCCC)cc1O [CBD, cannabidiol, reference compound]
other
  Solubility in water: insoluble in an aqueous environment

## COC(=O)/C=C/C(C)=C\C=C\C(C)=C\C=C\C=C(C)\C=C\C=C(C)\C=C\C(=O)O [bixin, (2E,4E,6E,8E,10E,12E,14E,16Z,18E)-20-methoxy-4,8,13,17-tetramethyl-20-oxoicosa-2,4,6,8,10,12,14,16,18-nonaenoic acid]
[1]
  Chemical stability: chemically unstable when isolated
other
  Solubility in water: insoluble in water
